Data as given in patent US10723764B2, “Anti-microbial peptides and methods of use thereof” (priority 2011, dated 2020).
Like-named read-outs stand apart in the source and are kept apart here. Marks after values point to notes of the source that are not given here. Where a SMILES comes first, the peptide text is derived from it. Where no end group is shown, it is not given here. [ ]: non-standard residue; d: D form.

Legend:
[1] = target: chymotrypsin (Bos taurus, UniProt P00766)
Protocol: One of the hurdles in developing peptide-based antimicrobials is peptide stability to protease (Wang, G. (2010) Antimicrobial Peptides: Discovery, Design and Novel Therapeutic Strategies, CABI, England). […] This was done by modifying the standard microdilution antimicrobial assays (Wang, G. (2008) J. Biol. Chem., 283:32637-32643). Specifically, the bacterial wells with a high peptide concentration (e.g. 100 μM) are duplicated (e.g., two for antimicrobial assays and two for protease stability assays). As an illustration, chymotrypsin was applied to the duplicated wells at a peptide:protease molar ratio of 25:1. Numerous peptides were screened in this manner.
To identify protease-resistant peptide templates, 30 synthetic peptides were screened (Table 9; Wang et al. (2008) Antimicrob. Agents Chemother., 52:3438-3440). A standard microdilution assay protocol (Li et al. (2006) J. Am. Chem. Soc., 128:5776-5785) was modified to include proteases into the duplicated wells with high concentrations of peptide so that both antimicrobial activity and protease stability could be evaluated simultaneously. […] (peptide:protease molar ratio of 40:1).

[2] = system: human erythrocytes; conditions: human red blood cells; Table 6
Protocol: Peptide hemolysis was assayed using an established protocol (Malmsten et al. (2011) PLoS One 6:e16400). In brief, fresh blood, obtained from the UNMC Blood Bank, was washed three times with PBS buffer and made into a 5% solution. To 90 μL of this solution, 10 μL of a peptide solution was added and incubated at 37° C. for one hour. After centrifugation at 13,000 rpm, aliquots of the supernatant were transferred to a fresh 96 well microplate. The absorbance of the solutions was measured at 545 nm to detect the amount of hemoglobin released. The percent lysis was calculated by assuming 100% release when treated with 2% Triton X-100 and no lysis (0%) when treated with PBS buffer. HL50 was the peptide concentration that caused 50% lysis of human erythrocytes. The cell selectivity (CS) indexes were calculated as the ratio of HL50 to the MIC of the peptide against S. aureus USA300.
The hemolytic effects of the six peptides were also compared on human red blood cells (hRBC) using an established protocol (Malmsten et al. (2011) PLoS One 6:e16400). […] A high TI indicates good cell selectivity.
Peptide hemolysis was assayed using an established protocol (Menousek et al. (2012) Int. J. Antimicrob. Agents 39:402-406; Malmsten et al. (2011) PLoS One 6:e16400). Briefly, blood cells were washed three times with phosphate-buffered saline (PBS) and were diluted to a 5% solution. Following peptide treatment, incubation at 37° C. for 1 hour and centrifugation at 13,000 rpm, aliquots of the supernatant were transferred to a fresh 96-well microplate. To assess peptide cytotoxicity, the amount of hemoglobin released was measured at 545 nm. Percent lysis was calculated by assuming 100% release when human blood cells were treated with 2% Triton X-100 and 0% release when they were incubated with PBS buffer.

[3] = system: Escherichia coli K12; conditions: E. coli K12; Table 5 screen
[4] = system: methicillin-resistant Staphylococcus aureus USA300 LAC; conditions: S. aureus USA300; Table 5 screen
[5] = system: Gram-negative bacteria; parameters: key: Y, Yes; N, No; conditions: data from the APD; cited from earlier work
[6] = system: Gram-positive bacteria; parameters: key: Y, Yes; N, No; conditions: data from the APD; cited from earlier work
[7] = E. coli K12 growth with chymotrypsin, peptide:protease molar ratio 25:1
[8] = antimicrobial assay with chymotrypsin, peptide:protease molar ratio 40:1, E. coli K12 for peptides inactive against S. aureus

In the case of `CC[C@@H](C)[C@@H](NC(=O)[C@H](CCCNC(=N)N)NC(=O)[C@H](CCC(N)=O)NC(=O)[C@@H](NC(=O)[C@H](NC(=O)[C@H](CCCNC(=N)N)NC(=O)[C@H](CCCCN)NC(=O)[C@H](Cc1ccccc1)NC(=O)CN)[C@H](C)CC)C(C)C)C(=O)N[C@@H](CCCCN)C(=O)N[C@@H](CC(=O)O)C(=O)N[C@@H](Cc1ccccc1)C(=O)N[C@H](CC(C)C)C(=O)N[C@@H](CCCNC(=N)N)C(=O)N[C@@H](CC(N)=O)C(=O)N[C@@H](CC(C)C)C(=O)N[C@H](C(N)=O)C(C)C` [GF-17d3] (H-GFKR[dI]VQR[dI]KDF[dL]RNLV-NH2; N-terminus assumed), the “Stability (to chymotrypsin)” value [1, 7] is reported as “+” and the “Stability (to chymotrypsin)” value [1, 8] is reported as “+^c”.
In the case of EKIGKEFKRIVQRIKDFLRN [EK-20], the “Stability (to chymotrypsin)” value [1, 8] is reported as “−”.
With FFGKVLKLIRKIF-NH2 [DASamP1] the “HL50 (μM), concentration at which 50% red blood cells are lysed” value [2] was 25 µM.
With “FFHHIFRGIVHVGKTIHRLVTG [Piscidin 1, reference compound]” the “HL50 (μM), concentration at which 50% red blood cells are lysed” value [2] was 20 µM.
For FKRIVQRIKDFLRNLVPRTE [FK-21], the “Stability (to chymotrypsin)” value [1, 8] was “−”.
With “GFKDLLKGAAKALVKTVLF-NH2 [Ascaphin-8, reference compound]” the “HL50 (μM), concentration at which 50% red blood cells are lysed” value [2] was 45 µM.
With GFKRIVQRIKDFLRNL-NH2 [GF-16] the “Stability (to chymotrypsin)” value [1, 8] was “−”.
For GFKRIVQRIKDFLRNLV-NH2 [GF-17], the “Stability (to chymotrypsin)” value [1, 7] was “−” and the “Stability (to chymotrypsin)” value [1, 8] was “−”.
In the case of “GFLSILKKVLPKVMAHMK-NH2 [Melectin, reference compound]”, the “MICs (μM) EC” value [3] is reported as 12.5 to 25 µM and the “MICs (μM) SA” value [4] is reported as 12.5 to 25 µM.
In the case of GKEFKRIVQRIKDFLRNLVPR [GK-21], the “Stability (to chymotrypsin)” value [1, 7] is reported as “−” and the “Stability (to chymotrypsin)” value [1, 8] is reported as “−”.
With “GKPRPYSPRPTSHPRPIRV [Drosocin, reference compound]” the “MICs (μM) EC” value [3] was >100 µM and the “MICs (μM) SA” value [4] was >100 µM.
With “GLLGLLGSVVSHVVPAIVGHF-NH2 [Maculatin 1.3, reference compound]” the “HL50 (μM), concentration at which 50% red blood cells are lysed” value [2] was 25 µM.
For “GNNRPVYIPQPRPPHPRI [Apidaecin IA, reference compound]”, the “MICs (μM) EC” value [3] was >100 µM and the “MICs (μM) SA” value [4] was >100 µM.
In the case of GRFKRFRKKFKKLFKKLS-NH2 [BMAP-18], the “Stability (to chymotrypsin)” value [1, 8] is reported as “−”.
In the case of “HVDKKVADKVLLLKQLRIMRLLTRL [Spinigerin, reference compound]”, the “MICs (μM) EC” value [3] is reported as >81 µM and the “MICs (μM) SA” value [4] is reported as >81 µM.
In the case of IKWKKLLRAAKRIL-NH2 [DASamP2], the “HL50 (μM), concentration at which 50% red blood cells are lysed” value [2] is reported as 75 µM.
In the case of “IWLTALKFLGKHAAKHLAKQQLSKL [Lycotoxin I, reference compound]”, the “HL50 (μM), concentration at which 50% red blood cells are lysed” value [2] is reported as 125 µM.
In the case of KIGKEFKRIVQRIKDFLRNLVP [KI-22], the “Stability (to chymotrypsin)” value [1, 7] is reported as “−” and the “Stability (to chymotrypsin)” value [1, 8] is reported as “−”.
With “RPKHPIKHQGLPQEVLNENLLRF [Isracidin, reference compound]” the “MICs (μM) EC” value [3] was >100 µM and the “MICs (μM) SA” value [4] was >100 µM.
For “RQRVEELSKFSKKGAAARRRK [Misgurin, reference compound]”, the “MICs (μM) EC” value [3] was >84 µM and the “MICs (μM) SA” value [4] was >84 µM.
In the case of “Temporin A: temporin, APD ID 94, SEQ ID NO: 14 (FLPLIGRVLSGIL; listed as Rana temporaria)”, the “Activity G− (activity against Gram-negative bacteria)” value (“Activity G−” for short) [5] is given as “N” and the “Activity G+ (activity against Gram-positive bacteria)” value (“Activity G+” below) [6] is given as “Y”.
For “Temporin B: temporin, APD ID 95, SEQ ID NO: 19 (LLPIVGNLLKSLL; listed as Rana temporaria)”, the “Activity G−” value [5] is listed as “N” and the “Activity G+” value [6] is listed as “Y”.
In the case of “Temporin C: temporin, APD ID 96, SEQ ID NO: 21 (LLPILGNLLNGLL; listed as Rana temporaria)”, the “Activity G−” value [5] is listed as “N” and the “Activity G+” value [6] is listed as “Y”.
In the case of “Temporin E: temporin, APD ID 97, SEQ ID NO: 16 (VLPIIGNLLNSLL; listed as Rana temporaria)”, the “Activity G−” value [5] is given as “N” and the “Activity G+” value [6] is given as “Y”.
For “Temporin F: temporin, APD ID 98, SEQ ID NO: 15 (FLPLIGKVLSGIL; listed as Rana temporaria)”, the “Activity G−” value [5] is given as “Y/Y” and the “Activity G+” value [6] is given as “Y/Y”.
For “Temporin G: temporin, APD ID 101, SEQ ID NO: 12 (FFPVIGRILNGIL; listed as Rana temporaria)”, the “Activity G−” value [5] is given as “Y/Y” and the “Activity G+” value [6] is given as “Y/Y”.
For “Temporin H: temporin, APD ID 859, SEQ ID NO: 17 (LSPNLLKSLL; listed as Rana temporaria)”, the “Activity G−” value [5] is listed as “N” and the “Activity G+” value [6] is listed as “Y”.
In the case of “Temporin K: temporin, APD ID 100, SEQ ID NO: 20 (LLPNLLKSLL; listed as Rana temporaria)”, the “Activity G−” value [5] is given as “N” and the “Activity G+” value [6] is given as “Y”.
For “Temporin L: temporin, APD ID 99, SEQ ID NO: 11 (FVQWFSKFLGRIL; listed as Rana temporaria)”, the “Activity G−” value [5] is listed as “Y/Y” and the “Activity G+” value [6] is listed as “Y/Y”.
In the case of “Temporin-1Lb: temporin, APD ID 110, SEQ ID NO: 13 (NFLGTLINLAKKIM; listed as Rana luteiventris)”, the “Activity G−” value [5] is given as “N” and the “Activity G+” value [6] is given as “Y”.
For “Temporin-SHf: temporin, APD ID 1534, SEQ ID NO: 10 (FFFLSRIF; listed as Pelophylax saharicus)”, the “Activity G−” value [5] is given as “Y/Y” and the “Activity G+” value [6] is given as “Y/Y”.
